# From US10556865B2, “Synergistic herbicidal composition containing certain pyridine or pyrimidine carboxylic acids and certain cereal and rice herbicides” (Dow AgroSciences, LLC, priority 2007, dated 2020)
# Legend:
# Type in all cases: in vivo
# [1] = test system: bird's-eye speedwell (Veronica persica L; VERPE); test: Postemergence herbicidal activity of mixtures in cereal crops (greenhouse, visual injury)
# Experimental: (§1) The plants were grown for 7-36 days in a greenhouse with an approximate 14 hour photoperiod which was maintained at about 18° C. during the day and 17° C. during the night. Nutrients and water were added on a regular basis and supplemental lighting was provided with overhead metal halide 1000-Watt lamps as necessary. The plants were employed for testing when they reached the second or third true leaf stage.
# (§2) Treatments consisted of compound (as listed in Tables 1 through 64) and a second cereal herbicide alone and in combination. […] Control plants were sprayed in the same manner with the solvent blank.
# (§3) The treated plants and control plants were placed in a greenhouse as described above and watered by sub-irrigation to prevent wash-off of the test compounds. After 20-22 days, the condition of the test plants as compared with that of the control plants was determined visually and scored on a scale of 0 to 100 percent where 0 corresponds to no injury and 100 corresponds to complete kill.
# (§4) The following equation was used to calculate the expected activity of mixtures containing two active ingredients, A and B: Expected=A+B−(A×B/100)
# [2] = test system: scented mayweed (Matricaria chamomila L; MATCH); test: as above; conditions: Matricaria, post-emergence, read-out: MATCH Ob
# Experimental: as §1, §2, §3, §4
# [3] = test system: Echinochloa species (ECHSS); test: Herbicidal mixtures for weed control in transplanted paddy rice (in-water application, visual % injury after 3 weeks); conditions: for % Injury ECHOR Ob: ECHOR = Echinocloa oryzoides
# Experimental: Weed seeds or nutlets of the desired test plant species were planted in puddled soil (mud) prepared by mixing a non-sterilized mineral soil (28 percent silt, 18 percent clay, and 54 percent sand, with a pH of about 7.3 to 7.8 and an organic matter content of about 1.0 percent) and water at a ratio of 100 kilograms (kg) of soil to 19 L of water. The prepared mud was dispensed in 250 mL aliquots into 480 mL non-perforated plastic pots with a surface area of 91.6 square centimeters leaving a headspace of 3 centimeters in each pot. Rice seeds were planted in Sun Gro MetroMix® 306 planting mixture, which typically has a pH of 6.0 to 6.8 and an organic matter content of about 30 percent, in plastic plug trays. Seedlings at the second or third leaf stage of growth were transplanted into 650 mL of mud contained in 960 mL non-perforated plastic pots with a surface area of 91.6 cm^2 4 days prior to herbicide application. The paddy was created by filling the 3 centimeter headspace of the pots with water. When required to ensure good germination and healthy plants, a fungicide treatment and/or other chemical or physical treatment was applied. The plants were grown for 4-14 days in a greenhouse with an approximate 14 hr photoperiod which was maintained at about 29° C. during the day and 26° C. during the night. Nutrients were added as Osmocote (17:6:10, N:P:K+minor nutrients) at 2 g per cup. Water was added on a regular basis to maintain the paddy flood, and supplemental lighting was provided with overhead metal halide 1000-Watt lamps as necessary. The plants were employed for testing when they reached the second or third true leaf stage.
# Treatments consisted of esters or salts of compound A, compound C, or compound D and various herbicidal components alone and in combination. For technical grade compounds, a weighed amount, determined by the highest rate to be tested, was placed in an individual 120 mL glass vial and was dissolved in 20 mL of acetone to obtain concentrated stock solutions. […] The concentrated stock solutions obtained were diluted with 20 mL of an aqueous mixture containing 2.5% Agri-dex crop oil concentrate (v/v). For formulated compounds, a measured amount, determined by the highest rate to be tested, was placed in an individual 120 mL glass vial and was dissolved in 20 mL of 2.5% (v/v) Agri-dex crop oil concentrate to obtain concentrated stock solutions. The concentrated stock solutions obtained were diluted with 20 mL of acetone. Applications were made by injecting an appropriate amount of the stock solution into the aqueous layer of the paddy. Control plants were treated in the same manner with the solvent blank. All treated plant material received the same concentration of acetone and crop oil concentrate.
# Forms of compounds A, C, and D were applied on an acid equivalent basis. Other herbicidal components were applied on an active ingredient basis and included acetolactate synthase (ALS)-inhibiting herbicides penoxsulam (triazolopyrimidine chemical class) applied as Grasp SC, […] (sulfonylurea chemical class) applied as Sirius G, and bensulfuron-methyl (sulfonylurea chemical class) applied as Londax; acetyl CoA carboxylase (ACCase) inhibiting herbicides cyhalofop-butyl applied as Clincher G and fenoxaprop-p-ethyl applied as Ricestar HT; auxinic herbicide quinclorac applied as Facet 75 DF; phytoene desaturase inhibiting herbicide norflurazon; and p-hydroxyphenylpyruvate dioxygenase (HPPD) inhibiting herbicide sulcotrione applied as Mikado.
# The treated plants and control plants were placed in a greenhouse as described above and water was added as needed to maintain a paddy flood. After 3 weeks the condition of the test plants as compared with that of the untreated plants was determined visually and scored on a scale of 0 to 100 percent where 0 corresponds to no injury and 100 corresponds to complete kill.
# [4] = test system: Ipomoea hederacea (L.) JACQ. (IPOHE); test: Postemergence herbicidal mixtures for weed control in direct seeded rice (greenhouse, visual % injury after 3 weeks)
# Cyperus iria L. (CYPIR) = test: Postemergence herbicidal mixtures for weed control in direct seeded rice (greenhouse, visual % injury)
# [5] = test system: Cyperus esculentus L. (CYPES); test: as above
# [6] = test system: wild pansy (Viola tricolor L; VIOTR); test: Postemergence herbicidal activity of mixtures in cereal crops (greenhouse, visual injury); conditions: Viola tricolor, post-emergence, read-out: VIOTR Ob
# Experimental: as §1, §2, §3, §4
# [7] = test system: black mustard (Brassica nigra L; BRSNI); test: as above; conditions: Brassica, post-emergence, read-out: BRSNI Ob
# Experimental: (§5) Seeds of the desired test plant species were planted in Sun Gro MetroMix® 306 planting mixture, which typically has a pH of 6.0 to 6.8 and an organic matter content of about 30 percent, in plastic pots with a surface area of 103.2 square centimeters (cm^2). When required to ensure good germination and healthy plants, a fungicide treatment and/or other chemical or physical treatment was applied. The plants were grown for 7-36 days in a greenhouse with an approximate 14 hour photoperiod which was maintained at about 18° C. during the day and 17° C. during the night. Nutrients and water were added on a regular basis and supplemental lighting was provided with overhead metal halide 1000-Watt lamps as necessary. The plants were employed for testing when they reached the second or third true leaf stage.
# Treatments consisted of compound (as listed in Tables 1 through 64) and a second cereal herbicide alone and in combination. Weighed amounts of esters (methyl) or salts (TEA [triethylammonium], K [potassium]) of 4-amino-3-chloro -6-(4-chloro-2-fluoro-3-methoxyphenyl)pyridine-2-carboxylic acid (Compound A) or of 6-amino-5-chloro-2-(4-chloro-2-fluoro-3-methoxyphenyl)pyrimidine-4-carboxylic acid (Compound B), were placed in 25 milliliter (mL) glass vials and dissolved in a volume of 97:3 v/v acetone/DMSO to obtain 4.5 milligrams (mg) active ingredient (ai)/mL stock solutions. […] The concentrated stock solutions were diluted to 1.5 mg ai/mL with the addition of 2 volumes of an aqueous mixture containing acetone, water, isopropyl alcohol, DMSO, Agri-dex crop oil concentrate, and Triton® X-77 surfactant in a 64.7:26.0:6.7:2.0:0.7:0.01 v/v ratio. A dilution solution was prepared by mixing 1 volume of 97:3 v/v acetone/DMSO and 2 volumes of an aqueous mixture containing acetone, water, isopropyl alcohol, DMSO, Agri-dex crop oil concentrate, and Triton® X-77 surfactant in a 64.7:26.0:6.7:2.0:0.7:0.01 v/v ratio. Compound requirements are based upon a 12 mL application volume at a rate of 187 liters per hectare (L/ha). Spray solutions of the second cereal herbicide and experimental compound mixtures were prepared by adding the stock solutions to the appropriate amount of dilution solution to form 12 mL spray solution with active ingredients in two- and three-way combinations. Formulated compounds were applied to the plant material with an overhead Mandel track sprayer equipped with 8002E nozzles calibrated to deliver 187 L/ha over an application area of 0.503 square meters (m^2) at a spray height of 18 inches (43 cm) above average plant canopy. Control plants were sprayed in the same manner with the solvent blank.
# as §3
# (§6) Colby's equation was used to determine the herbicidal effects expected from the mixtures (Colby, S. R. 1967. Calculation of the synergistic and antagonistic response of herbicide combinations. Weeds 15:20-22.).
# as §4
# [8] = test system: littleseed Canarygrass (Phalaris minor L; PHAMI); test: as above
# Experimental: as §5, with “When required to ensure good germination and healthy plants, a fungicide treatment and/or other chemical or physical treatment was applied.” left out
# (§7) Treatments consisted of compound (as listed in Tables 1 through 64) and a second cereal herbicide alone and in combination. […] The concentrated stock solutions were diluted to 1.5 mg ai/mL with the addition of 2 volumes of an aqueous mixture containing acetone, water, isopropyl alcohol, DMSO, Agri-dex crop oil concentrate, and Triton® X-77 surfactant in a 64.7:26.0:6.7:2.0:0.7:0.01 v/v ratio. A dilution solution was prepared by mixing 1 volume of 97:3 v/v acetone/DMSO and 2 volumes of an aqueous mixture containing acetone, water, isopropyl alcohol, DMSO, Agri-dex crop oil concentrate, and Triton® X-77 surfactant in a 64.7:26.0:6.7:2.0:0.7:0.01 v/v ratio. Compound requirements are based upon a 12 mL application volume at a rate of 187 liters per hectare (L/ha). […] Formulated compounds were applied to the plant material with an overhead Mandel track sprayer equipped with 8002E nozzles calibrated to deliver 187 L/ha over an application area of 0.503 square meters (m^2) at a spray height of 18 inches […] above average plant canopy. Control plants were sprayed in the same manner with the solvent blank.
# as §3, §6, §4
# [9] = test system: annual ryegrass (Lolium multiflorum L; LOLMG); test: as above; conditions: 50 g/ha, Table 22
# Experimental: as §5, with “When required to ensure good germination and healthy plants, a fungicide treatment and/or other chemical or physical treatment was applied.” left out
# as §7, §3, §6, §4
# [10] = test system: windgrass (Apera spica-venti L; APESV); test: as above; conditions: Apera spica-venti, post-emergence, read-out: APESV Ob
# Experimental: as §5, with “When required to ensure good germination and healthy plants, a fungicide treatment and/or other chemical or physical treatment was applied.” left out
# as §7, §3, §6, §4
# [11] = test system: blackgrass (Alopecurus myosuroides L; ALOMY); test: Postemergence herbicidal activity of mixtures in cereal crops (greenhouse, visual injury 0-100 percent after 20-22 days)
# Experimental: as §5, with “When required to ensure good germination and healthy plants, a fungicide treatment and/or other chemical or physical treatment was applied.” left out
# as §7, §3, §6, §4
smiles,measurement,setting,value
CC(Oc1ccc(Cl)cc1Cl)C(=O)O (stereo not drawn) [Dichlorprop],pest or weed control at 140 g/ha,"[1]; Veronica persica, post-emergence, 140 g/ha alone, read-out: VERPE Ob",20%
same,pest or weed control at 140 g/ha,[2]; 140 g/ha alone,10%
CS(=O)(=O)c1ccc(C(=O)C2C(=O)CCCC2=O)c(Cl)c1 [Sulcotrione],% Injury ECHOR Ob,[3]; Sulcotrione 70 g/ha alone (Compound A Methyl half),10%
same,% Injury ECHOR Ob,[3]; Sulcotrione 70 g/ha alone (Compound A TEA half),10%
COc1cc(OC)nc(Oc2cccc(Oc3nc(OC)cc(OC)n3)c2C(=O)O)n1 [Bispyribac-sodium],% Injury IPOHE Ob,[4]; alone 7 g/ha,10%
same,% Injury IPOHE Ob,[4]; alone 28 g/ha,60%
same,% Injury CYPIR Ob,Cyperus iria L. (CYPIR); alone 7 g/ha,40%
same,% Injury CYPIR Ob,Cyperus iria L. (CYPIR); alone 14 g/ha,90%
same,% Injury CYPIR Ob,Cyperus iria L. (CYPIR); alone 28 g/ha,95%
same,% Injury CYPES Ob,[5]; alone 14 g/ha,0%
same,% Injury CYPES Ob,[5]; alone 28 g/ha,50%
CSc1nnc(C(C)(C)C)c(=O)n1N [Metribuzin],pest or weed control at 50 g/ha,[6]; 50 g/ha alone,20%
same,pest or weed control at 50 g/ha,"[1]; Veronica persica, post-emergence, 50 g/ha alone, read-out: VERPE Ob",10%
same,pest or weed control at 50 g/ha,[7]; 50 g/ha alone,50%
CCN(CC)CC.O=C(O)COc1nc(Cl)c(Cl)cc1Cl [Triclopyr-TEA],% Injury CYPES Ob,[5]; alone 140 g/ha,0%
same,% Injury CYPES Ob,[5]; alone 280 g/ha,0%
"COc1nc(C)nc(NC(=O)NS(=O)(=O)c2ccccc2Cl)n1 [Chlorsulfuron, 2-chloro-N-[[(4-methoxy-6-methyl-1,3,5-triazin-2-yl)amino]carbonyl]benzenesulfonamide, reference compound]",VERPE Ob,"[1]; 2.2 g/ha, Table 28",5%
CCOc1c(Cl)ccc(-c2cc(N)c(Cl)c(C(=O)OC)n2)c1F [Compound D Methyl],% Injury CYPIR Ob,Cyperus iria L. (CYPIR); alone 8.75 g/ha,50%
same,% Injury CYPIR Ob,Cyperus iria L. (CYPIR); alone 35 g/ha,80%
CCOC(=O)c1cnn(C)c1S(=O)(=O)NC(=O)Nc1nc(OC)cc(OC)n1 [Pyrazosulfuron-ethyl],% Injury Ob,"[3]; ECHCG, 5.25 g/ha alone",20%
COc1c(Cl)ccc(Cl)c1C(=O)O [Dicamba],pest or weed control at 35 g/ha,"[1]; Veronica persica, post-emergence, 35 g/ha alone, read-out: VERPE Ob",10%
same,pest or weed control at 35 g/ha,[2]; 35 g/ha alone,30%
same,pest or weed control at 35 g/ha,[7]; 35 g/ha alone,50%
CCC(C)(CC)c1cc(NC(=O)c2c(OC)cccc2OC)on1 [Isoxaben],pest or weed control at 31.25 g/ha,[6]; 31.25 g/ha alone,3%
same,pest or weed control at 31.25 g/ha,"[1]; Veronica persica, post-emergence, 31.25 g/ha alone, read-out: VERPE Ob",0%
"CCON=C(CC)C1=C(O)CC(c2c(C)cc(C)cc2C)CC1=O (stereo not drawn) [Tralkoxydim, 2-[1-(ethoxyimino)propyl]-3-hydroxy-5-(2,4,6-trimethylphenyl)-2-cyclohexen-1-one, reference compound]",PHAMI Ob,"[8]; 25 g/ha, Table 6",35%
same,PHAMI Ob,"[8]; 50 g/ha, Table 6",45%
same,PHAMI Ob,"[8]; 50 g/ha, Table 22",30%
same,LOLMG Ob,[9],50%
same,pest or weed control at 50 g/ha,[10],75%
same,ALOMY Ob,"[11]; 25 g/ha, Table 6",78%
same,ALOMY Ob,"[11]; 50 g/ha, Table 6",70%
same,ALOMY Ob,"[11]; 50 g/ha, Table 22",70%
